Results on nine molecules are retold here after US12280090B2, “Antimicrobial peptides” (priority 2018, dated 2025).

Common to all, as to assay type: cell-based
Test [1] concerns Pseudomonas aeruginosa: ATCC 10148. How it is done: (§1) Microtiter broth dilution assays. HP2, HP3, and HP5 peptides are comprised of novel sequences that have not yet been described in the AMP literature. A common method for establishing antimicrobial activity of peptides is to perform microtiter broth assays. Microtiter broth dilution methods were implemented for determination of the minimum inhibitory concentration (MIC) and minimum bactericidal concentration (MBC). HP3 and HP5 were tested in addition to Ranatuerin-1/HP4 peptide as a positive control. HP2 could not be tested because multiple peptide synthesis attempts failed. The human cathelicidin, LL-37^30 was used as an additional positive control, and an unrelated similarly sized cationic peptide from the T. pallidum protein Tp0751 was used as a negative control. The potential AMPs were tested against bacteria representative of all three types of known cell envelope (Gram-positive, negative, and the complex and unique mycobacterial cell wall/envelope), given that a major mechanism used by AMPs is cell wall/membrane targeting.
(§2) Microtiter broth dilution assays. To test for antimicrobial activity, HP3, HP4/Ranatuerin-1, and HP5, peptides were synthesized by GenScript (Piscataway, New Jersey, USA). HP2 was not tested because the service provider was unable to synthesize this peptide despite multiple attempts. An unrelated, similarly-sized peptide from the Treponema pallidum protein Tp0751^55 was used as a negative control and the human cathelicidin, LL-37^30, was included as a positive control. Peptides were dissolved in filter-sterilized ultrapure water and tested for sterility by plating on non-selective agar plates followed by a 48 h incubation at 37° C. Two-fold serial dilutions of each peptide were prepared to obtain a series corresponding to ten times the required testing concentrations (2560, 1280, 640, 320, 160, 80, 40, 20, 10, and 5 μg/mL)^29.
(§3) Microtiter broth dilution methods were implemented for determination of the minimum inhibitory concentration (MIC) and minimum bactericidal concentration (MBC) of the four putative AMPs and the negative control peptide using procedures adapted from the R.E.W. Hancock Laboratory for cationic AMPs^29 and the CLSI methods for dilution antimicrobial susceptibility tests^56.
(§4) To assess antimicrobial activity across a diverse range of bacterial species, colonies were cultured overnight on Mueller Hinton agar plates (MHA; +5% sheep blood for S. pyogenes)^56 from frozen glycerol stock. Bacteria tested include Gram-negative rods (Escherichia coli: ATCC 9723H; Pseudomonas aeruginosa: ATCC 10148), Gram-positive cocci (Staphylococcus aureus: ATCC 6538P; Streptococcus pyogenes: unknown strain, hospital isolate), and Mycobacterium smegmatis (MC^2155; classified as neither Gram-positive nor Gram-negative). Bacterial suspensions were prepared by placing 3-5 morphologically similar colonies from the grown plate into sterile glass culture tubes containing 2 mL of Mueller Hinton Broth (MHB; +5% lysed horse blood for S. pyogenes) 56. Microbial inoculums from bacterial suspensions were prepared through a spectrophotometric adjustment of turbidity to 0.08-0.1 at 600 nm to achieve a turbidity equivalent to that of a 0.5 McFarland standard (1-2×10^8 CFU/mL)^29. The standardized bacterial inoculums were then diluted in MHB to obtain final cell densities of approximately […].
(§5) Ninety-six-well microtiter plates (Fisher Cat. No. CS003790; Nepean, Ontario, Canada) were prepared with 100 μL of E. coli, P. aeruginosa, S. aureus, S. pyogenes, or M. smegmatis bacterial suspension (5×10^5 CFU/mL) dispensed into each well of columns 1 through 11. Eleven microliters of the 10×AMP dilution series for all four peptides were added to each well from column 1 (2560 μg/mL) to column 10 (5 μg/mL) in all plates. Column 11 functioned as a positive control for bacterial growth in the absence of AMPs. Column 12 in each plate contained 100 μL of MHB as a sterility control (+5% lysed horse blood for S. pyogenes)^56. […]

Test [2] concerns Streptococcus pyogenes: unknown strain, hospital isolate. As for the experimental part:
as §1, §2, §3, §4, §5

Test [3] has as its system Escherichia coli: ATCC 9723H. How it is done:
as §1, §2, §3, §4, §5

The subject of test [4] is Staphylococcus aureus: ATCC 6538P. How it is done:
as §1, §2, §3, §4, §5

Test [5] has as its system Mycobacterium smegmatis (MC^2155). How it is done:
as §1, §2, §3, §4, §5

Where [6] appears, read: unknown strain, hospital isolate.

A word on the MBC: it is the smallest concentration meeting the test's criterion for killing. Read a high MBC as weaker bactericidal potency. Usually MIC stands for the smallest concentration in the dilution series that meets the test's criterion for growth inhibition. Lower therefore signals greater potency.

In brackets after ≈: the same amount, converted by molar mass. Where two headings read alike, the source gives them in different places. Ends that are not written are not given here. Peptide text beside a SMILES is read from it. Where only a bound is given, the exact number is not on record here.

On to `CC[C@H](C)[C@H](NC(=O)CNC(=O)[C@@H](NC(=O)[C@@H](NC(=O)[C@H](CCCCN)NC(=O)CNC(=O)[C@@H](NC(=O)[C@H](CC(=O)O)NC(=O)[C@H](CCCCN)NC(=O)[C@@H](NC(=O)[C@@H](NC(=O)[C@H](CC(=O)O)NC(=O)[C@H](CC(C)C)NC(=O)[C@H](CC(C)C)NC(=O)CN)[C@@H](C)CC)[C@@H](C)CC)[C@@H](C)O)[C@@H](C)O)[C@@H](C)O)C(=O)N[C@@H](CC(C)C)C(=O)N[C@@H](CCSC)C(=O)N[C@@H](CC(=O)O)C(=O)N[C@H](C(=O)N[C@@H](CC(C)C)C(=O)N[C@@H](CCCCN)C(=O)N[C@@H](CS)C(=O)N[C@@H](CCC(N)=O)C(=O)N[C@@H](CCSC)C(=O)N[C@H](C(=O)NCC(=O)N[C@@H](CCCNC(=N)N)C(=O)N[C@@H](CS)C(=O)N1CCC[C@H]1C(=O)N1CCC[C@H]1C(=O)N[C@@H](CO)C(=O)N[C@@H](CO)C(=O)O)[C@@H](C)O)[C@@H](C)O` [Peptide P3_CCH] (H-GLLDIIKDTGKTTGILMDTLKCQMTGRCPPSS-OH; N-terminus and C-terminus assumed), for which the MBC in test [1] (ATCC 10148), in test [2] (setting [6]), in test [3] (ATCC 9723), in test [4] (ATCC 6538) and in test [5] (Mycobacterium (MC^2155)) was greater than 256 µg/mL in each case. Also, the MIC in test [1] (ATCC 10148), in test [2] (setting [6]), in test [3] (ATCC 9723), in test [4] (ATCC 6538) and in test [5] (Mycobacterium (MC^2155)) was greater than 256 µg/mL in each case.
On to `CC[C@H](C)[C@H](NC(=O)[C@H](C)NC(=O)[C@@H]1CCCN1C(=O)[C@@H](N)Cc1ccccc1)C(=O)N[C@H](C(=O)N[C@@H](CS)C(=O)N[C@@H](CCCCN)C(=O)N[C@H](C(=O)N[C@@H](CO)C(=O)N[C@@H](CCCCN)C(=O)N[C@@H](CC(N)=O)C(=O)N[C@@H](CS)C(=O)O)C(C)C)[C@@H](C)CC` [Peptide P8_CCH, FPAIICKVSKNC] (H-FPAIICKVSKNC-OH; N-terminus and C-terminus assumed), for which the MBC in test [1] (ATCC 10148), in test [2] (setting [6]), in test [3] (ATCC 9723) and in test [4] (ATCC 6538) was greater than 256 µg/mL throughout. For the same molecule, the MIC in test [1] (ATCC 10148) was greater than 256 µg/mL; in test [2] (setting [6]) it was greater than 256 µg/mL; in test [3] (ATCC 9723), greater than 256 µg/mL; in test [4] (ATCC 6538), greater than 256 µg/mL; in test [5] (Mycobacterium (MC^2155)), 128 µg/mL (≈ 96.8 µM).
`CC[C@H](C)[C@H](N)C(=O)N[C@@H](CCC(N)=O)C(=O)N[C@@H](CCCNC(=N)N)C(=O)N[C@@H](CC(C)C)C(=O)N1CCC[C@H]1C(=O)N[C@H](C(=O)N[C@H](C(=O)N[C@H](C(=O)N[C@H](C(=O)N[C@@H](CC(C)C)C(=O)N1CCC[C@H]1C(=O)N[C@@H](CO)C(=O)N[C@@H](CC(C)C)C(=O)N[C@@H](Cc1ccc(O)cc1)C(=O)N[C@@H](CS)C(=O)N[C@H](C(=O)N[C@H](C(=O)N[C@@H](CS)C(=O)N[C@@H](CCCNC(=N)N)C(=O)N[C@H](C(=O)N[C@@H](CS)C(=O)O)[C@@H](C)O)[C@@H](C)CC)C(C)C)[C@@H](C)CC)C(C)C)[C@@H](C)CC)C(C)C` [Peptide P14_CCH] (H-IQRLPVIVILPSLYCVICRTC-OH; N-terminus and C-terminus assumed): the MBC in test [1] (ATCC 10148), in test [2] (setting [6]), in test [3] (ATCC 9723), in test [4] (ATCC 6538) and in test [5] (Mycobacterium (MC^2155)) was greater than 256 µg/mL in each case. In addition, the MIC in test [1] (ATCC 10148), in test [2] (setting [6]), in test [3] (ATCC 9723), in test [4] (ATCC 6538) and in test [5] (Mycobacterium (MC^2155)) was greater than 256 µg/mL each time.
For the molecule FLTKPGMTFGKLLGK [Peptide P9_CCH], the MBC in test [1] (ATCC 10148), in test [2] (setting [6]), in test [3] (ATCC 9723), in test [4] (ATCC 6538) and in test [5] (Mycobacterium (MC^2155)) was greater than 256 µg/mL each time. For the same molecule, the MIC in test [1] (ATCC 10148), in test [2] (setting [6]), in test [3] (ATCC 9723), in test [4] (ATCC 6538) and in test [5] (Mycobacterium (MC^2155)) was greater than 256 µg/mL throughout.
Regarding “FYFPVSRKFGGK [Peptide P1_CCH, FYFPVSRKFGGK]”, the MIC in test [1] (ATCC 10148), in test [2] (setting [6]), in test [3] (ATCC 9723) and in test [4] (ATCC 6538) was greater than 256 µg/mL throughout. Moreover, the MBC in test [1] (P. aeruginosa (Table 5)), in test [2] (S. pyogenes (Table 5)), in test [3] (E. coli (Table 5)), in test [4] (S. aureus (Table 5)) and in test [5] (M. smegmatis (Table 5)) was greater than 256 µg/mL each time.
Consider “IAGQVAAAKQKHI [Peptide P12_CCH, IAGQVAAAKQKHI]”, for which the minimum bactericidal concentration (MBC) in test [1] (ATCC 10148), in test [2] (setting [6]), in test [3] (ATCC 9723), in test [4] (ATCC 6538) and in test [5] (Mycobacterium (MC^2155)) was greater than 256 µg/mL in each case. Further, the MIC in test [1] (ATCC 10148), in test [2] (setting [6]), in test [3] (ATCC 9723), in test [4] (ATCC 6538) and in test [5] (Mycobacterium (MC^2155)) was greater than 256 µg/mL throughout.
With “LRCPTPHYNFENGIGNHLMWNIIWLNAQQMSYKNK [Peptide P15_CCH]”, the MBC in test [1] (ATCC 10148), in test [2] (setting [6]), in test [3] (ATCC 9723), in test [4] (ATCC 6538) and in test [5] (Mycobacterium (MC^2155)) was greater than 256 µg/mL throughout. Also, the minimal inhibitory concentration (MIC) in test [1] (ATCC 10148), in test [2] (setting [6]), in test [3] (ATCC 9723), in test [4] (ATCC 6538) and in test [5] (Mycobacterium (MC^2155)) was greater than 256 µg/mL in each case.
Turning to “SNRDFFKVNIFRLCG [Peptide P10_CCH, SNRDFFKVNIFRLCG]”, the MBC in test [1] (ATCC 10148), in test [2] (setting [6]), in test [3] (ATCC 9723), in test [4] (ATCC 6538) and in test [5] (Mycobacterium (MC^2155)) was greater than 256 µg/mL in each case. Besides, the minimum inhibitory concentration (MIC) in test [1] (ATCC 10148), in test [2] (setting [6]), in test [3] (ATCC 9723), in test [4] (ATCC 6538) and in test [5] (Mycobacterium (MC^2155)) was greater than 256 µg/mL each time.
Consider “SNRDFFMVNIFGLCGPFGIMERKRR [Peptide P16_CCH]”, for which the MIC in test [1] (ATCC 10148), in test [2] (setting [6]), in test [3] (ATCC 9723), in test [4] (ATCC 6538) and in test [5] (Mycobacterium (MC^2155)) was greater than 256 µg/mL in each case.
